In patent EP1669379B1, “3,5-DIMETHYL-1-ADAMANTYL-AMMONIUM POLYMERIC SALTS AND THE USE THEREOF IN THE FORM OF ANTIVIRAL AGENTS” (priority 2003, dated 2005):
Where a name gives a salt, the structure may show the parent alone. Read-outs that look alike come from different tables or passages of the source.

Columns and labels:
solubility (qualitative) = format: physicochemical
[1] = test system: virus of the influenza of the type A/Victoria35/72; format: cell-based; conditions: CAC model; dose 25.0 mcg/ml as calculated per equimolecular content of DMAAM
[2] = acute toxicity, single oral administration to mice (LD50); conditions: both sexes, Balb, mouse, in vivo
Experimental: The toxicity level of claimed compounds was assessed according to a general index of acute toxicity - average fatal dose of LD50. The study was held with a single oral administration of the agent to white mice of both sexes, line "Balb", weight 18 - 20 g, and to white rats, line "Vistar", weight 130 - 250 g (female) and 225 - 370 g (male). The medications were administered to mice in the dose range from 250 to 1100 mg/kg, and to rats in the range of 480 - 2315 mg/kg.

[3] = test system: virus of the influenza A/Li/40; assay: antiviral activity in tissue culture of chorionallantoic coat fragments (CAC model), A/Li/40; format: cell-based, chick-embryos; conditions: dose 25.0 mcg/ml as calculated per equimolecular content of DMAAM
Experimental: (§1) The tests of antiviral activity of produced polymeric salts were conducted against the viruses of types A and B influenza using the tissue culture of chorionallantoic coat fragments from chick-embryos (model CAC) and infecting animals (mice).

[4] = test system: influenza A/Aichi/2/68 virus; assay: duration of antiviral activity in infected mice, preventive application scheme, single oral dose; format: in vivo; conditions: for Protection index of medication (%) when administered in specified periods (hours) before contamination: mice, single oral dose 100mg/kg as calculated per equimolecular DMAAM content
Experimental: as §1
(§2) In each experimental and control (placebo) group 20 mice of both sexes were infected.

[5] = test system: influenza virus of B type; assay: summary statement on activity against influenza virus of B type; conditions: conclusion from the tables; protection index less than 20 is considered inactive
Text: At the same time synthesized (claimed) polymeric compounds of 3.5-dimethyl-1-adamantylamine have an effective level of antiviral activity against the influenza virus of B type, both in the infection model of chick-embryo and mice.

[6] = test system: virus of the influenza B/Li/40; assay: antiviral activity in infected mice, medical and preventive treatment scheme, oral; format: in vivo; conditions: single dose 50 mg/ml as calculated per equimolecular content of DMAAM, administration frequency 5
Experimental: as §1, §2

[7] = test system: influenza virus of B type; conditions: statement with reference to USSR author's certificates; cited from earlier work

Compound: CC12CC3CC(C)(C1)CC(N)(C3)C2 [3.5-dimethyl-l-adamantylamine, 3.5-dimethyl-1-adamantylamine]
- solubility in water (solubility (qualitative)): insoluble in water

Compound: CC12CC3CC(C)(C1)CC(N)(C3)C2 [HC - DMAAM (memantine), hydrochloride 3.5-dimethyl-1-adamantylamine]
- Protection index of the medication, % [1]: 39%
- LD50 [2]: 363 mg/kg
- Protection index of the medication, % [3]: 0%
- Protection index of medication (%) when administered in specified periods (hours) before contamination ([4]; 1 hour before contamination): 37%
- Protection index of medication (%) when administered in specified periods (hours) before contamination ([4]; 24 hours before contamination): 28%
- Protection index of medication (%) when administered in specified periods (hours) before contamination ([4]; 48 hours before contamination): 22%
- Protection index of medication (%) when administered in specified periods (hours) before contamination ([4]; 72 hours before contamination): 11%
- Protection index of medication (%) when administered in specified periods (hours) before contamination ([4]; 96 hours before contamination): 9%
- Protection index of medication (%) when administered in specified periods (hours) before contamination ([4]; 120 hours before contamination): 7%
- time of administration before infection at which the medication was effective ([4]; prevention scheme, same dose as calculated per 3.5-dimethyl-1-adamantylamine content): 24 h
- antiviral activity against the influenza virus of B type [5]: is not effective
- Protection index of medication, % [6]: 7.1%
- The number of animals Died, % [6]: 65%
- The number of animals Died, Animal units [6]: 13

Compound: Cl.NC12CC3CC(CC(C3)C1)C2 [midantan, hydrochloride 1-adamatilamine]
- antiviral activity against the influenza virus of B type [7]: is not effective

Compound: CC(N)C12CC3CC(CC(C3)C1)C2.Cl (stereo not drawn) [remantadin, hydrochloride α-methyl-α-(1-adamantyl)methylamine]
- antiviral activity against the influenza virus of B type [7]: is not effective
